Assay results from the NIST ThermoML archive (doi:10.1021/acs.jced.5b00105).

Test: refractive index (Na D-line) (dimensionless); xn = mol fraction of the nth substance listed
Settings: 100 kPa, Liquid

CC1CCCCC1 [methylcyclohexane] + CC(C)CC(C)(C)C
refractive index
Settings	293.15 K	298.15 K	303.15 K	308.15 K	313.15 K	318.15 K	323.15 K
x1 = 0.0999	–	1.3912	–	1.3876	–	1.3811	1.3789
x1 = 0.1012	1.395	–	1.3903	–	1.3861	–	–
x1 = 0.1999	–	1.3938	–	1.3902	–	1.3844	1.3819
x1 = 0.2003	1.3975	–	1.3929	–	1.3887	–	–
x1 = 0.2997	–	1.3966	–	1.3942	–	1.3871	1.3846
x1 = 0.3001	1.4	–	1.3958	–	1.3916	–	–
x1 = 0.4	–	1.3997	–	1.3962	–	1.3898	1.3869
x1 = 0.4019	1.403	–	1.3988	–	1.3947	–	–
x1 = 0.5	–	1.4028	–	1.3998	–	1.393	1.3905
x1 = 0.5008	1.406	–	1.4018	–	1.3978	–	–
x1 = 0.6	1.409	1.4059	1.4049	1.4029	1.401	1.3962	1.3938
x1 = 0.6998	1.4125	–	1.4082	–	1.4043	–	–
x1 = 0.7001	–	1.4092	–	1.4064	–	1.3993	1.397
x1 = 0.7999	–	1.4127	–	1.4097	–	1.403	1.4
x1 = 0.8	1.4158	–	1.4117	–	1.4077	–	–
x1 = 0.9	1.4195	1.4161	1.4153	1.4132	1.4114	1.4066	1.4039
x1 = 1	1.4232	1.4199	1.419	1.4168	1.415	1.4102	1.4078

CCCCC1CCCCC1 [butylcyclohexane] + CC(C)CC(C)(C)C
refractive index
Settings	293.15 K	298.15 K	303.15 K	308.15 K	313.15 K	318.15 K	323.15 K
x1 = 0.0999	1.3972	–	1.3928	–	1.3884	–	–
x1 = 0.1008	–	1.3944	–	1.3898	–	1.3849	1.3824
x1 = 0.2	–	1.4001	–	1.3953	–	1.3907	1.3885
x1 = 0.2002	1.4026	–	1.3981	–	1.3935	–	–
x1 = 0.3001	1.4079	1.4055	1.4034	1.4008	1.3988	1.3959	1.3943
x1 = 0.3996	1.413	–	1.4087	–	1.4042	–	–
x1 = 0.3999	–	1.4105	–	1.4057	–	1.4015	1.3993
x1 = 0.5004	–	1.4155	–	1.4112	–	1.4069	1.4045
x1 = 0.5005	1.4181	–	1.4139	–	1.4094	–	–
x1 = 0.5999	–	1.4204	–	1.4158	–	1.4118	1.4093
x1 = 0.6003	1.423	–	1.4186	–	1.4141	–	–
x1 = 0.6994	1.4276	–	1.423	–	1.4185	–	–
x1 = 0.6995	–	1.4249	–	1.4207	–	1.4161	1.4145
x1 = 0.7998	–	1.4295	–	1.4249	–	1.4208	1.4184
x1 = 0.8	1.4321	–	1.4274	–	1.4229	–	–
x1 = 0.9	–	1.4335	–	1.4292	–	1.4248	1.4229
x1 = 0.9001	1.4362	–	1.4314	–	1.4271	–	–
x1 = 1	1.4403	1.4377	1.4355	1.4333	1.4314	1.429	1.4268

CCC1CCCCC1 [ethylcyclohexane] + CC(C)CC(C)(C)C
refractive index
Settings	293.15 K	298.15 K	303.15 K	308.15 K	313.15 K	318.15 K	323.15 K
x1 = 0.1	1.3959	1.3926	1.3918	1.3889	1.3877	1.3826	1.3805
x1 = 0.1999	–	1.3965	–	1.3932	–	1.3867	1.3849
x1 = 0.2	1.4005	–	1.3964	–	1.3924	–	–
x1 = 0.3	–	1.4004	–	1.3975	–	1.3912	1.3891
x1 = 0.3003	1.4043	–	1.4003	–	1.396	–	–
x1 = 0.3997	1.4084	–	1.4041	–	1.4003	–	–
x1 = 0.4	–	1.4046	–	1.4015	–	1.3954	1.3931
x1 = 0.5	–	1.4086	–	1.4059	–	1.3996	1.3975
x1 = 0.5002	1.4123	–	1.4084	–	1.4047	–	–
x1 = 0.6001	–	1.4129	–	1.4098	–	1.4037	1.4015
x1 = 0.6005	1.4167	–	1.4125	–	1.4087	–	–
x1 = 0.7002	1.4207	–	1.4169	–	1.4132	–	–
x1 = 0.7004	–	1.4172	–	1.4146	–	1.4081	1.4059
x1 = 0.8001	–	1.4214	–	1.4186	–	1.4118	1.4097
x1 = 0.8003	1.4254	–	1.4211	–	1.4175	–	–
x1 = 0.8994	–	1.4256	–	1.4228	–	1.4161	1.4144
x1 = 0.8997	1.4295	–	1.4253	–	1.4216	–	–
x1 = 1	1.4337	1.4301	1.4295	1.4278	1.4259	1.4204	1.4187
